Laboratory results: patent publication US7094760B2, “Peptides for treatment of inflammation and shock” (Salpep Biotechnology, Inc., priority 1996, dated 2006)

Columns and labels:
[1] = test system: jejunal segments from ovalbumin-sensitized rats; test: antigen-induced jejunal segment contraction, URE/OA ratio, Example 7; parameters: species or system rat
Description: Animals and Tissue Preparation: Male Sprague-Dawley rats were sensitized to egg albumin (ovalbumin, OA) with 50 ng of Pertussis bordetella toxin as an adjuvant. Four to six weeks after sensitization, the rats were anaethetised with sodium pentobarbital and the jejunum was removed. Two cm sections of the jejunum were mounted in tissue baths under 0.75 g of isometric tension, and the tissues were allowed to equilibrate for 20 min prior to beginning the experiment.
10 μg of SGP-T or one of its analogues or fragments was added to a bath, while control tissues received the saline vehicle. Following a 10 min incubation, 100 ng of OA prepared in 0.9% saline was added. After the tissue had reached a maximal contractile response, the tissues were washed extensively to remove OA and peptide and, after the tissues had established baseline tension, 20 μg of urecholine (URE; a cholinergic-muscarinic receptor agonist) was added to determine the maximal contractile response of the tissue. The tissues were then removed from the bath, cleared of all underlying mucosa and the weight of the remaining muscle was determined.
Data Analysis: The tension (measured in grams) per gram tissue weight generated by each tissue in response to OA and URE was calculated. To normalize for differences in the ability of each tissue segment to contract in response to the muscle stimulants, the contractile response to […]. Thus, a measure of the antigen-induced contraction was expressed as the URE/OA ratio.
The data was analyzed using the one-way analysis of variance (ANOVA) and differences between groups was determined using the Student t-test for unpaired samples. The results are shown in FIGS. 7 and 8 and Tables 3 and 4.

[2] = test system: rats sensitized to hen egg albumin; test: intestinal anaphylaxis (diarrhoea, disrupted MMCs), egg albumin-sensitized rats, Example 3; assay type: in vivo, rat; settings: intravenously
Text: SGP-T was also effective in preventing intestinal anaphylaxis.

[3] = test system: ovalbumin-sensitized Sprague-Dawley rats; test: anaphylactic hypotension (VPSP), ovalbumin-sensitized rats, Example 8; assay type: in vivo, rat; settings: intravenous, 100 μg/kg, 10 min prior to antigen
Description: Animals and Tissue Preparation: Male Sprague-Dawley rats were sensitized to egg albumin (ovalbumin; OA) with 50 ng of Pertussin bortella toxin as an adjuvant. Four to six weeks after sensitization, the rats were anesthetized with sodium pentobarbital. A tracheal tube was inserted and a cannula was inserted into the left ventricle for measuring ventricular peak systolic pressure (VPSP). This cannula was coupled to a blood pressure transducer. A cannula was also inserted into the jugular view for administration of peptide (100 μg/kg) and antigen (100 μg of OA). The peptides were injected intravenously 10 min prior to antigen injection and blood pressure was recorded for 30 min.
In a second study, the peptide feG (D-phenylalanine, D-glutamate, glycine) was administered orally by a stomach tube 1 hour prior to intravenous injection of the sensitizing antigen.
Data Analysis: The percent changes in VSPS induced by anaphyalctic reaction were calculated relative to baseline VPSP. Significance differences within groups were determined with one-way analysis of variance (ANOVA), and between groups with the Student t-test.

[4] = test system: endotoxin-induced fever in rats; test: endotoxin-induced fever, Example 12; assay type: in vivo, rat; settings: late phase (180–420 minutes); injected immediately before ip 150 μg/kg LPS
Description: Rats were operated on to remove salivary glands (or controls were sham-operated) one week before challenge with endotoxin. At the time of operation, a temperature sensitive radio transmitter was inserted in the peritoneal cavity. One week after operation, baseline temperatures were recorded by telemetry and SGP-T or saline was injected immediately before intra-peritoneal injection of 150 μg/kg LPS. Temperature was followed for 12 hours. SGP-T suppressed a late phase (180–420 minutes) of endotoxin-induced fever.

[5] = test system: neutrophil influx into carrageenin-soaked sponge in rats; test: neutrophil migration into carrageenin-soaked sponge; assay type: in vivo, rat
Description: The subcutaneous implantation of a carrageenin-soaked sponge in rats is a model used to evaluate agents that modulate neutrophil chemotaxis, as carrageein is a potent chemotactic agent and the sponge serves as a collecting reservoir.
Under halothane anaesthesia the sponge was removed from its subcutaneous site and the fluid was squeezed from it into a test tube. Following centrifugation at 2,000 g for 10 min, the exudate was decanted and the remaining cells were suspended in 4 ml of 0.9% saline, and their number determined using a Coulter Counter. One ml of the remaining cell suspension was extracted for use in the superoxide assay.
Intravenous injections of SGP-T inhibited neutrophil influx into a carrageenin-soaked sponge in a dose-dependent manner (FIG. 4). When the ability of neutrophils obtained from the carrageenin-soaked sponges to generate superoxide anion was evaluated, those obtained from saline-treated rats were totally refractory to f MLP and phorbol myristate acetate (PMA).

rat neutrophils = test: superoxide anion production in vitro, rat neutrophils; assay type: cell-based
Description: Neutrophils (10^6) were suspended in PBS buffer of the following composition: NaCl 137 mM, KCl 2.7 mM, Na2HPO4, 8.1 mM, KH2PO4 1.47 mM, CaCl2 1.19 mM, MgCl2 0.54 mM, glucose 7.5 mM and cytochrome C 1.5 mM (Sigma Chemical Co. St. Louis, […].) incubated at 37 C. Each sample was read along with a reference sample containing 1440 units of superoxide dismutase (Sigma) in a spectrophotometer (Hitachi, U200 spectrophotometer). The rate of superoxide production in response to 10^−7M phorbol myristate acetate (PMA) or 10^−5 M N-formyl-methionyl-leucyl-phenylalanine (fMLP) was then inferred from the slope. (Derian et al., (1996), Biochemistry 35(4): 1265–9).
Neutrophils obtained either from carrageenin-soaked sponges implanted subcutaneously in rats, or from the blood of healthy human volunteers, were preincubated with various doses of SGP-T for 30 minutes, then stimulated with 10^−7M PMA and the rate of superoxide anion production determined. At doses less than 1 μM, SGP-T inhibited superoxide anion production by both rat and human neutrophils, although the rat neutrophils were approximately 10-fold less sensitive than human neutrophils to this inhibitor effect (FIG. 6). At higher doses of the peptide(>1 μM), an enhancement of superoxide anion production was evident with human neutrophils.
At 0.001 and 0.01 μM SGP-T, O2^− production was inhibited by 15 to 20% in human neutrophils, while 10-fold higher concentrations were required for such inhibition with rat neutrophils. Much higher concentrations of SGP-T (10 and 20 μM) stimulated O2^− production by human neutrophils. Each value is presented as the mean ±SEM, and the number of experiments was between 6 and 12.

[6] = test system: isolated jejunal segments from egg albumin-sensitised rats; test: antigen-induced contraction of isolated jejunal segments, Examples 3 and 6; parameters: species or system rat
Description: SGP-T, at doses as low as 6.8×10^−7M, reduced antigen induced contractions of these isolated intestinal tissues by 60% (data not shown).
Analogues and fragments of SGP-T were tested for their ability to inhibit antigen (egg albumin)-induced intestinal contractions, using isolated jejunal segments from egg albumin-sensitised rats, as described in Example 3.

NH2-Thr-Asp-Ile-Phe-Glu-Gly-Gly-COOH (H-TDIFEGG-OH) [SGP-T, submandibular gland peptide T, TDIFEGG]
reduction of the anaphylactic reaction ([1]; 10 μg of peptide): more than 50%
URE/OA ([1]; Table 4, 10 μg peptide, 100 ng OA, 20 μg urecholine, saline 5.7 ± 1.0): 13.9 ± 5.6
manifestation of anaphylaxis ([2]; 100 μg/kg): totally prevented
anaphylactic reactions (diarrhoea, disruption of MMCs) ([2]; doses as low as 10 μg/kg): significantly attenuated
anaphylactic hypotension (VPSP) [3]: significantly inhibited
endotoxin-induced fever [4]: suppressed
neutrophil influx into a carrageenin-soaked sponge ([5]; intravenous injections): inhibited
inhibition of neutrophil migration ([5]; rat, in vivo): approximately 50%
superoxide anion production (rat neutrophils; doses less than 1 μM, 10^−7M PMA): inhibited
sensitivity of rat neutrophils relative to human neutrophils (less sensitive) (rat neutrophils; inhibition of superoxide anion production): approximately 10 fold
higher concentrations required for 15 to 20% inhibition versus human neutrophils (rat neutrophils; relative to 0.001 and 0.01 μM in human neutrophils): 10 fold
Biological Activity = inhibition of antigen-induced jejunal contraction by test peptide [6]: +++ (+++ = highest inhibition (~60%))
reduction of antigen induced contractions of isolated intestinal tissues ([6]; doses as low as 6.8×10^−7M): 60%
